In PubChem BioAssay AID2060606 (Molecular Pharmacology Branch, DTP, NCI, 2025):

System: 922993-354-T-J3-PDC complex spheroids, viability, % test/control
Assay: Anticancer human tumor 922993-354-T-J3-PDC patient-derived endometrial carcinoma cell line growth inhibition [CLK]
Conditions: for IC50: curve of first compound; for viability, T/C: stronger effect = lower value; active = viability on the fitted dose curve at most 10% of control; inactive = the rest
Summary of the method: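 Multi-cell-type spheroids combined patient-derived tumor cells with HUVEC endothelial cells and human mesenchymal stem cells. Paired agents were dosed in half-log steps down from about clinical Cmax, or from 10 microM where Cmax was unknown.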
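Also: spheroids exposed to the agents for 7 days before readout.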

COc1cccc2c1C(=O)c1c(O)c3c(c(O)c1C2=O)CC(O)(C(=O)CO)CC3OC1CC(N)C(O)C(C)O1 (configuration not stated) + CNC(=O)c1ccc(Nc2nc(OC3CCCC3)c3c(-c4ccc5nc(C)oc5c4)c[nH]c3n2)c(OC)c1
1890 nM: IC50 (second compound 0.316 µM)
3770 nM: IC50 (second compound 0.1 µM)
active: viability, T/C (second compound 1 µM, first compound 10 µM) 3.3% | viability, T/C (second compound 3.16 µM, first compound 3.16 µM) 10.2% | viability, T/C (second compound 3.16 µM, first compound 10 µM) 0.97% | viability, T/C (second compound 10 µM, first compound 3.16 µM) 3.31% | viability, T/C (second compound 10 µM, first compound 10 µM) 1.92%
inactive: viability, T/C (second compound 0.0316 µM, first compound 0.0316 µM) 101% | viability, T/C (second compound 0.0316 µM, first compound 0.1 µM) 116% | viability, T/C (second compound 0.0316 µM, first compound 0.316 µM) 102% | viability, T/C (second compound 0.0316 µM, first compound 1 µM) 78% | viability, T/C (second compound 0.0316 µM, first compound 3.16 µM) 52.3% | viability, T/C (second compound 0.0316 µM, first compound 10 µM) 22.1% | viability, T/C (second compound 0.1 µM, first compound 0.0316 µM) 122% | viability, T/C (second compound 0.1 µM, first compound 0.1 µM) 123% | viability, T/C (second compound 0.1 µM, first compound 0.316 µM) 108% | viability, T/C (second compound 0.1 µM, first compound 1 µM) 85.7% | viability, T/C (second compound 0.1 µM, first compound 3.16 µM) 57% | viability, T/C (second compound 0.1 µM, first compound 10 µM) 18.7% | viability, T/C (second compound 0.316 µM, first compound 0.0316 µM) 77% | viability, T/C (second compound 0.316 µM, first compound 0.1 µM) 63% | viability, T/C (second compound 0.316 µM, first compound 0.316 µM) 66.6% | viability, T/C (second compound 0.316 µM, first compound 1 µM) 71.3% | viability, T/C (second compound 0.316 µM, first compound 3.16 µM) 34.3% | viability, T/C (second compound 0.316 µM, first compound 10 µM) 17.5% | viability, T/C (second compound 1 µM, first compound 0.0316 µM) 43.1% | viability, T/C (second compound 1 µM, first compound 0.1 µM) 44.3% | viability, T/C (second compound 1 µM, first compound 0.316 µM) 22.2% | viability, T/C (second compound 1 µM, first compound 1 µM) 23.5% | viability, T/C (second compound 1 µM, first compound 3.16 µM) 25.9% | viability, T/C (second compound 3.16 µM, first compound 0.0316 µM) 36.8% | viability, T/C (second compound 3.16 µM, first compound 0.1 µM) 21.1% | viability, T/C (second compound 3.16 µM, first compound 0.316 µM) 18.2% | viability, T/C (second compound 3.16 µM, first compound 1 µM) 21.7% | viability, T/C (second compound 10 µM, first compound 0.0316 µM) 27.5% | viability, T/C (second compound 10 µM, first compound 0.1 µM) 12.8% | viability, T/C (second compound 10 µM, first compound 0.316 µM) 16.8% | viability, T/C (second compound 10 µM, first compound 1 µM) 24.5%
< 31.6 nM: IC50 (second compound 1 µM) | IC50 (second compound 3.16 µM) | IC50 (second compound 10 µM)
3130 nM: IC50 (second compound 0.0316 µM)
